Source: patent US8697385B1, “Protein controlling synthesis of collagen and associated methods” (Florida State University Research Foundation, Inc., priority 2009, dated 2014)

How the values were obtained:
human lung fibroblasts = assay: Western blot analysis of cellular and medium collagen polypeptides, lung fibroblasts; format: cell-based; details: 16 h, ML-7 40 μM, blebbistatin 100 μM, vs control cells
Experimental: ML-7, blebbistatin, cytochalasin B, puromycin, and cycloheximide were purchased from Sigma. ML-7 was used at 40 μM, blebbistatin was used at 100 μM, and cytochalasin B was used at 20 μM. Cells were incubated with the drugs for 16 h before analysis. Puromycin (200 μg/ml) and cycloheximide (100 μg/ml) were added to the cells for 2 h. Human lung fibroblasts have been described previously.16 Scleroderma fibroblasts were purchased from the European Collection of Cell Cultures (cell line BM0070) and derived from the skin of a scleroderma patient. MEFs were derived from knock-in mice in which the 5′SL of the collagen α1(I) gene has been mutated (Parsons et al., submitted). Several independent cell isolates were used throughout the study. All cells were cultured in Dulbecco's modified Eagle's medium supplemented with 10% fetal bovine serum for up to 10 passages. Plasmid constructs and adenovirus preparation. The HA-tagged LARP6 clone and the deletion mutants have been described previously.^16 Adenoviruses were constructed by recloning of the constructs into the pAdCMVTRACK vector, followed by recombination with the pAdEasy vector and amplification, as described previously.^48 Expression of each construct was verified by Western blot analysis. The viruses made express both the full-size test protein and the green fluorescent protein (GFP), which is encoded by an independent transcription unit.^48 Expression of GFP served as control for viral transduction. RT-PCR analysis Total cellular RNA was isolated using an RNA isolation kit (Sigma). RT-PCRs were performed with 100 ng of total RNA or using rTth reverse transcriptase (Boca Scientific, Boca Raton, Fla.). [^32P]dCTP was included in the PCR step to label the products, which were resolved on sequencing gels, as described previously.^8,31,49,50 When RNA from polysomal fractions was analyzed, an equal aliquot of each fraction was used. The number of cycles was adjusted to within the linear range of the reaction. The primers used for RT-PCR were as follows: h-collagen α1(I), 5′ primer […] (SEQ ID NO:3) and 3′ primer […] (SEQ ID NO:4); h-collagen α2(I), 5′ primer […] (SEQ ID NO:5) and 3′ primer […] (SEQ ID NO:6).
Protein concentration was estimated by the Bradford assay, with bovine serum albumin as standard.^51 Western blot analyses of cellular proteins were performed using 50 μg of protein. For Western blot analysis of secreted proteins, equal numbers of cells were seeded, serum-free medium was added to the cells, and incubation continued for 3 h. The medium was collected, and an aliquot was analyzed directly by Western blot analysis. Use of serum free medium in collecting secreted proteins is essential because fetal calf serum contains substantial amounts of collagen and fibronectin.^15,31 For immunostaining, cells were seeded onto glass coverslips. After treatment, the cells were fixed with 4% paraformaldehyde for 30 min at room temperature and permeabilized with 0.5% Triton X-100 in phosphatebuffered saline (PBS) for 10 min. After the cells had been blocked with 10% goat serum/5% bovine serum albumin in PBS for 1 h at room temperature, they were incubated with primary antibody overnight at 4° C., washed, and visualized with AlexaFluor594-conjugated or Cy-2-conjugated secondary antibodies. The cells were mounted using VECTASHIELD mounting medium containing […], 6-diamidino-2-phenylindole (Vector Laboratories), and images were taken by a Leica TCS SP2 AOBS laser confocal microscope equipped with a Chameleon Ti: Sapphire multiphoton laser. Optical sections were processed with LCSLite software.
To assess the role of nonmuscle myosin in collagen synthesis, we disrupted nonmuscle myosin filaments in two different cell types: primary human lung fibroblasts and primary scleroderma skin fibroblasts. These cells are responsible for lung and skin fibrosis. […]

lung fibroblasts [1] = assay: Apoptosis of primary lung fibroblasts; format: cell-based; details: lung fibroblasts after ML-7 treatment; without treatment 2.2%
Source text: (§1) To assess the role of nonmuscle myosin in collagen synthesis, we disrupted nonmuscle myosin filaments in two different cell types: primary human lung fibroblasts and primary scleroderma skin fibroblasts. These cells are responsible for lung and skin fibrosis. […] To assess the effect of ML-7 on collagen protein synthesis and secretion, we analyzed the levels of collagen α1(I) and α2(I) polypeptides in the intracellularly space and in the medium using Western blot analysis and chain-specific antibodies.^12,15,31-33 ML-7 treatment profoundly affected the secretion of type I collagen, but the effect differed in the two types of primary fibroblasts. […] To assess if the secreted α1(I) polypeptides had been secreted as disulfide-bonded homotrimers, we performed Western blot analysis under nonreducing conditions (FIG. 3d). […] However, since α2(I) polypeptide was absent in the cell medium of ML-7-treated cells, the bands must represent disulfide-bonded collagen α1(I) chains. The α2(I) antibody could not recognize the polypeptide under nonreducing conditions, so we could not directly test its presence in S—S bonded collagen. Since there are reports that ML-7 can cause apoptosis of epithelial cells, we tested if ML-7 caused apoptosis of the primary fibroblasts. […] Therefore, we concluded that increased apoptosis is not responsible for the observed effects of ML-7. […]

scleroderma fibroblasts = assay: Apoptosis of primary scleroderma fibroblasts; format: cell-based; details: ML-7 did not have an effect
Source text: as §1

lung fibroblasts [2] = assay: Immunostaining for subcellular colocalization of collagen α1(I) and α2(I) polypeptides; format: cell-based, human; details: ML-7-treated vs control cells (high degree of colocalization)
Experimental: ML-7, blebbistatin, cytochalasin B, puromycin, and cycloheximide were purchased from Sigma. ML-7 was used at 40 μM, blebbistatin was used at 100 μM, and cytochalasin B was used at 20 μM. Cells were incubated with the drugs for 16 h before analysis. Puromycin (200 μg/ml) and cycloheximide (100 μg/ml) were added to the cells for 2 h. Human lung fibroblasts have been described previously.16 Scleroderma fibroblasts were purchased from the European Collection of Cell Cultures (cell line BM0070) and derived from the skin of a scleroderma patient. MEFs were derived from knock-in mice in which the 5′SL of the collagen α1(I) gene has been mutated (Parsons et al., submitted). Several independent cell isolates were used throughout the study. All cells were cultured in Dulbecco's modified Eagle's medium supplemented with 10% fetal bovine serum for up to 10 passages. […] [^32P]dCTP was included in the PCR step to label the products, which were resolved on sequencing gels, as described previously.^8,31,49,50 When RNA from polysomal fractions was analyzed, an equal aliquot of each fraction was used. […]
Protein concentration was estimated by the Bradford assay, with bovine serum albumin as standard.^51 Western blot analyses of cellular proteins were performed using 50 μg of protein. […] The medium was collected, and an aliquot was analyzed directly by Western blot analysis. […]

## O=S(=O)(c1cccc2c(I)cccc12)N1CCCNCC1 [ML-7]
Human lung fibroblasts; cytochalasin B 20 μM
  secretion of collagen α1(I) polypeptide into the medium: found in similar amounts
  secretion of collagen α2(I) polypeptide into the medium: secreted only in trace amounts
  secretion/expression of fibronectin: not affected
Human lung fibroblasts
  intracellular level of collagen α1(I) and α2(I) polypeptides: not significantly affected
Lung fibroblasts [1]
  percentage of apoptotic cells: 4.2%
Scleroderma fibroblasts
  percentage of apoptotic cells: 0.3%
Lung fibroblasts [2]
  subcellular colocalization of α1(I) and α2(I) polypeptides: a significant fraction of α2(I) polypeptide (red) was not colocalized with α1(I) polypeptide
